{"source": "patent US8729053B2", "about": "“Nuclear factor kappa B pathway inhibitor composition and use of same” (The United States of America, as represented by the …, priority 2008, dated 2014)", "key": {"[1]": {"test_system": "ERK 1/2 (p42/44)", "assay": "Immunoblot of TPA-induced ERK 1/2 phosphorylation", "assay_type": "cell-based", "settings": "17.0 μM and 8.5 μM pretreatment", "description": "(§1) To measure endogenous level of several proteins in response to TPA induction and compound I, HEK293 cells were lysed with RIPA buffer (10 mM Tris-HCl pH 7.5, 1 mM EDTA, 0.1% sodium dodecyl sulfate, 0.1% deoxycholate, and protease inhibitor). Whole cell extracts were subjected to immunoblot analysis with the following antibodies: p65 (F-6), p50 (E-10), p52 (C-5), RelB (C-19), IκBα (C-21), PCNA (F-2) were obtained from Santa Cruz Biotechnology (Santa Cruz, Calif.). IKKα, IKKβ, IKKγ, phospho-IκBα, phospho-IKKα/β, phospho-IKKγ, pohospho-Stat3 (Tyr 705 and Ser 727), phospho-p65 (Ser536 and Ser276), phospho-p44/42, phospho-JNKs were purchased from Cell Signaling (Danvers, Mass.), and α-tubulin from Sigma (St. Louis, Mo.). Nuclear and cytoplasmic extracts were prepared with HEK293 cells by NE-PER Nuclear and Cytoplasmic Extraction Reagents (Pierce Biotechnology, Rockford, Ill.) according to the manufacturer's protocol.\n(§2) The selectivity of compound I was evaluated by measuring phosphorylation of proteins involved in the AP-1 induction pathway. AP-1 dependent transcription can be activated by MAP Kinases JNK, ERK 1/2 (p44/42). […] At these concentrations compound I, in contrast, completely repressed major regulators in the NFκB activation pathway. JNKs are activated by a variety of environmental stresses responsible for AP-1 activation through c-Jun phosphorylation. […]"}, "[2]": {"test_system": "STAT3", "assay": "Immunoblot of TPA-inducible STAT3 phosphorylation", "assay_type": "cell-based", "settings": "17.0 μM and 8.5 μM pretreatment", "description": "as §1, §2"}, "[3]": {"test_system": "IL-6 mRNA", "assay": "Quantitative RT-PCR of endogenous IL-6 mRNA in HEK293 cells", "assay_type": "cell-based, human", "settings": "concentrations as low as 2.1 μM, 1 hour pretreatment, TPA 18 hours, normalized by GAPDH", "description": "Total RNA was isolated from HEK293 cells after pretreatment with varying compound I and/or TPA stimulation by ToTALLY RNA kit (Ambion, Austin, Tex.), and first-strand cDNA was synthesized from 1 μg of the isolated total RNA using the SuperScript III First-Strand Synthesis System (Invitrogen, Carlsbad, Calif.) with random hexamers, oligonucleotide primers. cDNA was purified by QIAquick PCR purification kit (Qiagen, Valencia, Calif.) according to the manufacturer's manual. Real-time PCR was performed with iQ SYBR Green Supermix (Bio-Rad, Hercules, Calif.) by iQ5 Multicolor RT-PCR detection system (Bio-Rad, Hercules, Calif.). Primers for endogenous human IL-6 were designed by Primer 3 program (http://frodo.wi.mit.edu/). Human glyceraldehyde-3-phosphate dehydrogenase (hGAPDH) was used as a control. The sequences for RT-PCR are as follows:\nInhibition of NFκB transactivation would be expected to result in suppressed expression of genes whose transcription depends on NFκB. Quantitative RT-PCR was used to measure endogenous levels of IL-6 mRNA, transcribed from a gene whose transcription depends on NFκB but not AP-1. […] Plasmids expressing luciferase reporters were driven by promoters for COX-2, uPAR (urokinase-type plasminogen activator receptor), or VEGF. […]"}, "[4]": {"test_system": "COX-2 promoter", "assay": "COX-2 promoter luciferase reporter assay in HEK293 cells", "assay_type": "cell-based, human", "settings": "TPA 10 ng/ml 18 hours", "description": "(§3) All expression plasmids were transiently transfected into HEK293 cells in a 96-well plate (0.1 μg/well) by using Effectene transfection reagent (Qiagen, Valencia, Calif.) according to the manufacturer's manual. HEK293 cells were maintained in Dulbecco's modified Eagle medium (Sigma, St. Louis, Mo.) supplemented with 10% fetal bovine serum (Atlanta Biologicals, Lawrenceville, Ga.) and incubated at 37° C. in a 5% CO2 incubator. After 24 hrs incubation, the medium was changed to DMEM with 0.2% FBS, and the transfectants were exposed to various concentrations of compound I and TPA (10 ng/ml). Cells were lysed with passive lysis buffer and the luciferase assay was performed using the Firefly-Luciferase reporter assay system (Promega, Madison, Wis.) and MLX Luminometer (Dynex Technology, Chantilly, Va.).\n(§4) Three different luciferase reporter genes, AP-1 reporter containing four times TRE consensus originated from GCN4 and SRE reporter purchased from Stratagene (La Jolla, Calif.) respectively are as described previously (Suzukawa et al., Environ. Health Perspect., 2002, 110, 865-70). […]\n(§5) Inhibition of NFκB transactivation would be expected to result in suppressed expression of genes whose transcription depends on NFκB. Quantitative RT-PCR was used to measure endogenous levels of IL-6 mRNA, transcribed from a gene whose transcription depends on NFκB but not AP-1. […]"}, "[5]": {"test_system": "VEGF promoter", "assay": "VEGF promoter luciferase reporter assay in HEK293 cells", "assay_type": "cell-based, human", "settings": "TPA 10 ng/ml 18 hours", "description": "as §3, §4, §5"}, "[6]": {"test_system": "NCI-60 panel of human cancer cell lines", "assay": "NCI-60 cancer screen, growth inhibition", "assay_type": "cell-based", "description": "Thus in addition to inhibiting tumorigenesis (transformation) and tumor progression (invasion), compound I may have potential for tumor growth inhibition in some cancer sites."}}, "note": "Structures can show the parent of a compound that is named as a salt.", "data": [{"smiles": "Cc1cc(N)ccc1N=Nc1ccc(S(=O)(=O)CCOS(=O)(=O)O)cc1", "note": "[compound I, 2-(4-((4-amino-2-methylphenyl)diazenyl)phenylsulfonyl)ethyl hydrogen sulfate]", "values": [{"measurement": "TPA-induced phosphorylation of endogenous ERK 1/2 (p42/44)", "setting": "[1]", "value": "no repression"}, {"measurement": "TPA inducible phosphorylation of STAT3", "setting": "[2]", "value": "no repression"}, {"measurement": "Part of TPA induction of IL-6 mRNA prevented", "setting": "[3]", "value": "more than half"}, {"measurement": "COX-2 luciferase activity", "setting": "[4]", "value": "dose-dependent inhibition"}, {"measurement": "Luciferase activity driven by VEGF promoter", "setting": "[5]", "value": "did not significantly affect"}, {"measurement": "inhibition at 1 µM", "setting": "[6]; Homo sapiens, compound at 1 μM, read-out: Growth inhibition of leukemia lines", "value": "> 50", "unit": "%"}, {"measurement": "Killing of leukemia lines", "setting": "[6]; concentrations up to 100 μM", "value": "does not kill"}, {"measurement": "Sensitivity of leukemia and breast cancer cell lines versus lines from other cancer sites", "setting": "[6]; growth inhibition", "value": "more sensitive"}, {"measurement": "Concentration at which most of the NCI-60 lines showed growth inhibition", "setting": "[6]; most of the NCI-60 human cancer cell lines", "value": "greater than 10 μM"}]}]}
